Measurements published in patent publication US20110294828A1, “PROCESS FOR PREPARING A POLYMORPH OF THE CHOLINE SALT OF A PYRIMIDIN-5-YL ACETIC ACID DERIVATIVE” (BOEHRINGER INGELHEIM INTERNATIONAL GMBH, priority 2009, published 2011).
Structures can show the parent of a compound that is named as a salt.

Key:
[1] = biological target: T1, CRTH2 (Homo sapiens, UniProt Q9Y5Y4); test: CRTH2 antagonistic activity (statement only, no method given)
T1 sequence (Q9Y5Y4 1-395): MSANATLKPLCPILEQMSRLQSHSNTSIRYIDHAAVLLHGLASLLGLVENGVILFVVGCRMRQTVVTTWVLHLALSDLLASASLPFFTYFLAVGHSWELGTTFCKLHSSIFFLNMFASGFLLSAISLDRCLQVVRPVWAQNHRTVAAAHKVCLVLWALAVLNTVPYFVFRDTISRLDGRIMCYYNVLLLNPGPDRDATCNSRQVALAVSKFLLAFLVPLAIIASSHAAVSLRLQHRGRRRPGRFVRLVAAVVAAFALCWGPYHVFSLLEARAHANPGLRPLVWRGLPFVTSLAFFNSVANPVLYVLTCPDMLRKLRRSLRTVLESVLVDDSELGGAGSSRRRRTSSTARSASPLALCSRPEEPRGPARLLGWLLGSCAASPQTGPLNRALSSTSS

[2] = Dynamic vapor sorption/desorption (DVS); assay type: physicochemical; settings: up to 75% relative humidity at 25° C.
Procedure: Vapor sorption/desorption was carried out using Surface Measurement Systems DVS-HT. Samples were placed into a foil insert placed on a sample pan. […] The equilibrium point of each step was reached when 0.002% of weight change was reached.

[3] = Particle size distribution (Sympatec HELOS, dry powder dispersion); assay type: physicochemical; set-up: particle size D90: dose or concentration left out as unconfirmed; settings: for Particle size distribution (PSD) % <10 μM / Particle size distribution (PSD) % <50 μM / particle size D90: crystalline product as isolated, no milling; for particle size D90: the values are: particle size D90
Procedure: Determination of particle size distribution was carried out using a Sympatec HELOS System H1588 with a RODOS/M Dry Powder Dispersion System.

For CN(C)c1nc(Cc2ccc(NC(=O)c3ccc(C(F)(F)F)cc3)cc2)nc(N(C)C)c1CC(=O)O [choline salt of [4,6-bis(dimethylamino)-2-(4-{[4-(trifluoromethyl)benzoyl]amino}benzyl)pyrimidin-5-yl]acetic acid], the CRTH2 antagonistic activity [1] was “excellent”, the “hygroscopicity (DVS isotherm, FIG. 3)” value [2] was “non-hygroscopic” and the “Particle size distribution (PSD) % <10 μM” value ([3]; listed as Comp. Ex. 2) was 11.57. For the same compound, the “Particle size distribution (PSD) % <50 μM” value ([3]; listed as Comp. Ex. 2) was 60.13, the particle size D90 ([3]; listed as Comp. Ex. 2) was 120 µm and the “Particle size distribution (PSD) % <10 μM” value ([3]; listed as Comp. Ex. 3) was 6.87. For the same compound, the “Particle size distribution (PSD) % <50 μM” value ([3]; listed as Comp. Ex. 3) was 57.62, the particle size D90 ([3]; listed as Comp. Ex. 3) was 181 µm and the “Particle size distribution (PSD) % <10 μM” value ([3]; listed as Comp. Ex. 4) was 3.01. For the same compound, the “Particle size distribution (PSD) % <50 μM” value ([3]; listed as Comp. Ex. 4) was 13.62, the particle size D90 ([3]; listed as Comp. Ex. 4) was 38 µm and the “Particle size distribution (PSD) % <10 μM” value ([3]; listed as Ex. 1) was 5.13. For the same compound, the “Particle size distribution (PSD) % <50 μM” value ([3]; listed as Ex. 1) was 16.67, the particle size D90 ([3]; listed as Ex. 1) was 35.5 µm and the “diameter of 90% of the choline salt particles” value ([3]; seeding step with seeding particles of which 90% have a diameter of less than 50 μm) was “less than 100 μm”.
